Reference: patent publication US20140045873A1, “NOVEL MICROBIOCIDES” (SYNGENTA PARTICIPATIONS AG, priority 2010, published 2014)
Read-outs that look alike come from different tables or passages of the source.

Assays:
[1] = tested on: Glomerella lagenarium (Colletotrichum lagenarium); assay: Glomerella lagenarium (Colletotrichum lagenarium) / liquid culture (anthracnose); format: cell-based; details: Colletotrichum orbiculare; 200 ppm, liquid culture, PDB, 24° C., 3-4 days after application; read-out: control of Glomerella lagenarium (inhibition of growth, photometric)
[2] = tested on: Mycosphaerella arachidis (Cercospora arachidicola); assay: Mycosphaerella arachidis (Cercospora arachidicola) / liquid culture (early leaf spot); format: cell-based; details: 200 ppm, liquid culture, PDB, 24° C., 4-5 days after application, read-out: control of Mycosphaerella arachidis (inhibition of growth, photometric)
Pyrenophora teres = details: in Hordeum vulgare, foliar, read-out: control of Pyrenophora teres (disease control compared to untreated)
[3] = tested on: Mycosphaerella graminicola (Septoria tritici); assay: Mycosphaerella graminicola (Septoria tritici) / liquid culture (Septoria blotch); format: cell-based; details: Zymoseptoria tritici; 200 ppm, liquid culture, PDB, 24° C., 4-5 days after application; read-out: control of Mycosphaerella graminicola (inhibition of growth, photometric)
[4] = tested on: Botryotinia fuckeliana (Botrytis cinerea); assay: Botryotinia fuckeliana (Botrytis cinerea) / liquid culture (gray mould); format: cell-based; details: Vogels broth, 24° C., 3-4 days after application, read-out: control of Botryotinia fuckeliana (inhibition of growth, photometric)
Description: Botryotinia Fuckeliana (Botrytis cinerea)/Liquid Culture (Gray Mould): Conidia of the fungus from cryogenic storage were directly mixed into nutrient broth (Vogels broth). […].45

[5] = tested on: Puccinia recondita f. sp. tritici; details: in Triticum aestivum, foliar, read-out: control of Puccinia recondita f. sp. tritici (percent disease control compared to untreated)
[6] = tested on: Puccinia recondita f. sp. tritici; details: in Triticum aestivum, foliar, read-out: control of Puccinia recondita f. sp. tritici (percent disease control compared to untreated); remark: listed apart in the source
[7] = tested on: Phaeosphaeria nodorum (Septoria nodorum); details: Parastagonospora nodorum, in Triticum aestivum, foliar, read-out: control of Phaeosphaeria nodorum (percent disease control compared to untreated)
Gaeumannomyces graminis = Gaeumannomyces graminis / liquid culture (take-all of cereals); format: cell-based; details: 200 ppm, liquid culture, PDB, 24° C., 4-5 days after application, read-out: control of Gaeumannomyces graminis (inhibition of growth, photometric)
[8] = tested on: Thanatephorus cucumeris (Rhizoctonia solani); details: read-out: control of Thanatephorus cucumeris (inhibition of growth, photometric)
[9] = tested on: Monographella nivalis (Microdochium nivale); assay: Monographella nivalis (Microdochium nivale) / liquid culture (foot rot cereals); format: cell-based; details: PDB, 24° C., 4-5 days after application, read-out: control of Monographella nivalis (inhibition of growth, photometric)
Pythium ultimum = Pythium ultimum / liquid culture (seedling damping off); format: cell-based; details: Globisporangium ultimum, potato dextrose broth, 24° C., 2-3 days after application, read-out: control of Pythium ultimum (inhibition of growth, photometric)
Alternaria solani = Alternaria solani / tomato / leaf disc (early blight); format: in vivo; details: foliar, tomato leaf disks cv. Baby, inoculated 2 days after application, assessed 5-7 days after application, read-out: control of Alternaria solani (percent disease control compared to untreated)
Procedure: The inoculated leaf disks were incubated at 23° C./21° C. […].44

Row | melting point [°C] | Compound | inhibition at 200 ppm [1] [%] | inhibition at 200 ppm [2] [%] | pest or weed control at 200 ppm (Pyrenophora teres) [%] | inhibition at 200 ppm [3] [%] | inhibition at 200 ppm [4] [%] | pest or weed control at 200 ppm [5] [%] | pest or weed control at 200 ppm [6] [%] | pest or weed control at 200 ppm [7] [%] | inhibition at 200 ppm (Gaeumannomyces graminis) [%] | inhibition at 200 ppm [8] [%] | inhibition at 200 ppm [9] [%] | inhibition at 200 ppm (Pythium ultimum) [%] | pest or weed control at 200 ppm (Alternaria solani) [%]
1 | 84 to 86 | COc1cc(C)nc(-c2cccc(CCCO/N=C(\C)c3cccc(C)n3)n2)c1 [P.11, 1-(6-methyl-pyridin-2-yl)-ethanone-O-[3-(4′-methoxy-6′-methyl-[2,2]bipyridinyl-6-yl)-propyl]-oxime] | ≥ 80 | ≥ 80 | ≥ 80 | ≥ 80 | ≥ 80 | ≥ 80 | ≥ 80 | ≥ 80 | ≥ 80 | ≥ 80 | ≥ 80 | – | –
2 | – | CCOc1cc(C)nc(-c2cccc(CCCO/N=C(\C)c3cccc(C)n3)n2)c1 [P.12] | ≥ 80 | ≥ 80 | ≥ 80 | – | ≥ 80 | ≥ 80 | ≥ 80 | ≥ 80 | – | ≥ 80 | ≥ 80 | ≥ 80 | ≥ 80
3 | 53 to 54 | C/C(=N\OCCCc1cccc(-c2cc(Cl)cc(C)n2)n1)c1cccc(C)n1 [P.16, 1-(6-methyl-pyridin-2-yl)-ethanone-O-[3-(4′-chloro-6′-methyl-[2,2′]bipyridinyl-6-yl)-propyl]-oxime] | ≥ 80 | ≥ 80 | ≥ 80 | ≥ 80 | ≥ 80 | ≥ 80 | ≥ 80 | ≥ 80 | ≥ 80 | ≥ 80 | – | – | –
4 | 76 to 77 | CSc1cc(C)nc(-c2cccc(CCCO/N=C(\C)c3cccc(C)n3)n2)c1 [P.17] | ≥ 80 | ≥ 80 | ≥ 80 | ≥ 80 | – | ≥ 80 | ≥ 80 | ≥ 80 | ≥ 80 | ≥ 80 | ≥ 80 | ≥ 80 | –
5 | – | C/C(=N\OCCCc1cccc(-c2cc(OC(C)C)cc(C)n2)n1)c1cccc(C)n1 [P.27] | ≥ 80 | ≥ 80 | ≥ 80 | ≥ 80 | ≥ 80 | ≥ 80 | ≥ 80 | ≥ 80 | – | ≥ 80 | ≥ 80 | ≥ 80 | ≥ 80
6 | 128 to 130 | CCc1cc(O)c(C)c(-c2cccc(CCCO/N=C(\C)c3cccc(C)n3)n2)n1 [P.32] | – | – | – | – | – | – | – | – | – | – | – | – | –
7 | – | COc1cc(C)nc(-c2cccc(CCCO/N=C(\C)c3nc(C)cc(C)n3)n2)c1 [P.44] | ≥ 80 | ≥ 80 | ≥ 80 | ≥ 80 | ≥ 80 | ≥ 80 | ≥ 80 | ≥ 80 | ≥ 80 | ≥ 80 | ≥ 80 | ≥ 80 | ≥ 80
